Data as given in ChEMBL document CHEMBL5523716, “Discovery of novel EGFR-PROTACs capable of degradation of multiple EGFR-mutated proteins” (Eur J Med Chem, 2024).
Calls of active or inactive are those of the source. The calls are words filed in the database; no cut-off is given here.

Key:
[1] = system: von Hippel-Lindau disease tumor suppressor/Epidermal growth factor receptor (Homo sapiens), P00533+P40337 [L858R,T790M]; assay: PROTAC activity at VHL/EGFR L858R/T790M mutant in human NCI-H1975 cells assessed as induction of EGFR degradation at 100 nM preincubated with MG-132 for 6 hrs followed by compound treatment for 48 hrs by Western blot analysis; type: cell-based
[2] = system: von Hippel-Lindau disease tumor suppressor/Epidermal growth factor receptor (Homo sapiens), P00533+P40337 [UNDEFINED MUTATION]; assay: PROTAC activity at VHL/EGFR Del19 mutant in human HCC827 cells assessed as induction of EGFR degradation at 100 nM preincubated with MLN-4924 for 6 hrs followed by compound treatment for 48 hrs by Western blot analysis; type: cell-based
[3] = Metabolic stability in dog liver microsomes assessed as half-life at 1 uM incubated upto 60 mins in presence of NADPH by LC-MS/MS analysis; type: ADME, Canis lupus familiaris, Microsome
[4] = AUC (0 to t) in SPF ICR mouse at 5 mg/kg,ip measured upto 24 hrs by LC-MS/MS analysis; type: ADME, organism-based; details: in vivo
[5] = system: von Hippel-Lindau disease tumor suppressor/Epidermal growth factor receptor (Homo sapiens), P00533+P40337 [L858R,T790M]; assay: PROTAC activity at VHL/EGFR L858R/T790M mutant in human NCI-H1975 cells assessed as downregulation of EGFR phosphorylation incubated for 72 hrs by Western blot analysis; type: cell-based
NCI-H1975 [6] = assay: Antitumor activity against human NCI-H1975 cells xenografted in BALB/c mouse assessed as tumor growth inhibition at 5 mg/kg,ip once daily for 22 days relative to control; type: functional; details: NCI-H1975, 528 h, time 22 day, read-out: TGI
[7] = Cmax in SPF ICR mouse at 5 mg/kg,ip measured upto 24 hrs by LC-MS/MS analysis; type: ADME, organism-based; details: in vivo
H1975-TM [8] = assay: Antitumor activity against human H1975-TM cells xenografted in BALB/c mouse assessed as increase in EGFR degradation in tumor at 5 to 20 mg/kg,ip once daily for 14 days by Western blot analysis; type: functional, organism-based; details: dose 5-20 mg/kg, time 14.0 day
[9] = Metabolic stability in dog liver microsomes assessed as elimination rate constant at 1 uM incubated upto 60 mins in presence of NADPH by LC-MS/MS analysis; type: ADME, Canis lupus familiaris, Microsome
[10] = system: von Hippel-Lindau disease tumor suppressor/Epidermal growth factor receptor (Homo sapiens), P00533+P40337 [L858R,T790M,C797S]; assay: PROTAC activity at VHL/EGFR L858R/T790M/C797S mutant in human H1975-TM cells assessed as maximal EGFR degradation at 0.03 to 2.5 uM incubated for 48 hrs by Western blot analysis relative to control; type: cell-based; details: dose 0.03-2.5 µM
[11] = system: von Hippel-Lindau disease tumor suppressor/Epidermal growth factor receptor (Homo sapiens), P00533+P40337 [L858R,T790M]; assay: PROTAC activity at VHL/EGFR L858R/T790M mutant in human NCI-H1975 cells assessed as induction of EGFR degradation at 2 uM incubated for 8 hr by Western blot analysis; type: cell-based
[12] = system: von Hippel-Lindau disease tumor suppressor/Epidermal growth factor receptor (Homo sapiens), P00533+P40337 [L858R,T790M]; assay: PROTAC activity at VHL/EGFR L858R/T790M mutant in human NCI-H1975 cells assessed as downregulation of ERK phosphorylation incubated for 72 hrs by Western blot analysis; type: cell-based
[13] = AUC (0 to infinity) in SPF ICR mouse at 5 mg/kg,ip measured upto 24 hrs by LC-MS/MS analysis; type: ADME, organism-based; details: in vivo
[14] = system: von Hippel-Lindau disease tumor suppressor/Epidermal growth factor receptor (Homo sapiens), P00533+P40337 [UNDEFINED MUTATION]; assay: PROTAC activity at VHL/EGFR Del19 mutant in human HCC827 cells assessed as downregulation of ERK phosphorylation incubated for 72 hrs by Western blot analysis; type: cell-based
A549 = assay: Antiproliferative activity against human A549 cells harboring EGFR wild type assessed as inhibition of cell growth incubated for 48 to 72 hrs by CCK-8 assay; type: functional, cell-based
[15] = biological target: Voltage-gated inwardly rectifying potassium channel KCNH2 (Homo sapiens, UniProt Q12809); assay: Inhibition of hERG expressed in CHO cells at 0.3 to 30 uM incubated for 24 to 48 hrs by voltage clamp electrophysiology; type: toxicity, cell-based; details: dose lower 0.3 µM, time lower 24 hrs, dose upper 30 µM, time upper 48 hrs
Chain of Voltage-gated inwardly rectifying potassium channel KCNH2 (Q12809 whole entry): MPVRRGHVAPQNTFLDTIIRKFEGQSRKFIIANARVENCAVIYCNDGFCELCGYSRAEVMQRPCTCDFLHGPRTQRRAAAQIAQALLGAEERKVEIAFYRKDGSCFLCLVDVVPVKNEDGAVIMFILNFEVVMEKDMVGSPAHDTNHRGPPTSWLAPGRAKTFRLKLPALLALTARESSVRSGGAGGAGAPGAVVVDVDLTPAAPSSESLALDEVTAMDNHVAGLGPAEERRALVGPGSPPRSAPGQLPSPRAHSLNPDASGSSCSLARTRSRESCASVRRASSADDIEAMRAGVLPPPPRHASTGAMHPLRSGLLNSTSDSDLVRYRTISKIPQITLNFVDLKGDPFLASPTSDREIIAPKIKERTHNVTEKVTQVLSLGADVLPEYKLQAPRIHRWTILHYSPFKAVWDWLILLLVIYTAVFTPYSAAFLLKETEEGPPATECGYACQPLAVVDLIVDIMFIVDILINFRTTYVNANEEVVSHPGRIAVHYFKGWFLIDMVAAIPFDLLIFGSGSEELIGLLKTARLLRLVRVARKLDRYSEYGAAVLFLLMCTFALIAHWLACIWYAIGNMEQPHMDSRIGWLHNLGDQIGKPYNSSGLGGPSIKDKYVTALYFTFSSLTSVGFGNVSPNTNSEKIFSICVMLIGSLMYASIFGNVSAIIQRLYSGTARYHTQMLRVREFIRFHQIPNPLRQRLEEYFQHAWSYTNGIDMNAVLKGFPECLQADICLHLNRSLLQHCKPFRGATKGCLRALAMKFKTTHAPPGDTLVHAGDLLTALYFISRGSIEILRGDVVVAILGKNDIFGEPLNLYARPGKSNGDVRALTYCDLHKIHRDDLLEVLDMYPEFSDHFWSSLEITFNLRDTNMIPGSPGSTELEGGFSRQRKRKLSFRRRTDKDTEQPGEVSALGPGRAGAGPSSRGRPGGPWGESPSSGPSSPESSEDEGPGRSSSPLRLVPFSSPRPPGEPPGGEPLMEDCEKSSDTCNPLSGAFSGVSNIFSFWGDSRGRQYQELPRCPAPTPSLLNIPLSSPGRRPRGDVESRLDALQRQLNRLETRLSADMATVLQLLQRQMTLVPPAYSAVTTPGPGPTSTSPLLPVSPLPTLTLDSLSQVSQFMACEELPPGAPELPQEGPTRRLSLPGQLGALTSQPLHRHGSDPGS

HCC827 [16] = assay: Antitumor activity against human HCC827 cells xenografted in BALB/c mouse assessed as tumor growth inhibition at 1.25 mg/kg,ip once daily for 28 days relative to control; type: functional; details: HCC827, 672 h, time 28 day, read-out: TGI
[17] = Metabolic stability in rat liver microsomes assessed as half-life at 1 uM incubated upto 60 mins in presence of NADPH by LC-MS/MS analysis; type: ADME, Microsome
[18] = AUC (0 to t) in SPF ICR mouse at 2 mg/kg,iv measured upto 24 hrs by LC-MS/MS analysis; type: ADME, organism-based; details: in vivo
[19] = system: von Hippel-Lindau disease tumor suppressor/Epidermal growth factor receptor (Homo sapiens), P00533+P40337 [UNDEFINED MUTATION]; assay: PROTAC activity at VHL/EGFR Del19 mutant in human HCC827 cells assessed as maximal EGFR degradation at 1.56 to 100 nM incubated for 72 hrs by Western blot analysis relative to control; type: cell-based; details: dose 1.56-100 nM
HCC827 [20] = assay: Antiproliferative activity against human HCC827 cells harboring EGFR Del19 mutant assessed as inhibition of cell growth incubated for 48 to 72 hrs by CCK-8 assay; type: functional, cell-based
[21] = Metabolic stability in mouse liver microsomes assessed as elimination rate constant at 1 uM incubated upto 60 mins in presence of NADPH by LC-MS/MS analysis; type: ADME, Microsome
[22] = system: von Hippel-Lindau disease tumor suppressor/Epidermal growth factor receptor (Homo sapiens), P00533+P40337 [L858R,T790M]; assay: PROTAC activity at VHL/EGFR L858R/T790M mutant in human NCI-H1975 cells assessed as downregulation of AKT phosphorylation incubated for 72 hrs by Western blot analysis; type: cell-based
[23] = system: von Hippel-Lindau disease tumor suppressor/Epidermal growth factor receptor (Homo sapiens), P00533+P40337 [L858R,T790M,C797S]; assay: PROTAC activity at VHL/EGFR L858R/T790M/C797S mutant in human H1975-TM cells assessed as induction of EGFR degradation at 100 nM preincubated with MLN-4924 for 6 hrs followed by compound treatment for 48 hrs by Western blot analysis; type: cell-based
[24] = Toxicity in BALB/c mouse xenografted with human H1975-TM cells assessed as change in body weight at 5 to 20 mg/kg,ip once daily for 14 days; type: organism-based; details: in vivo, 336 h, dose 5-20 mg/kg, time 14 day
[25] = Half life in SPF ICR mouse at 5 mg/kg,ip measured upto 24 hrs by LC-MS/MS analysis; type: ADME, organism-based; details: in vivo
H1975-TM [26] = assay: Antitumor activity against human H1975-TM cells xenografted in BALB/c mouse assessed as downregulation of AKT phosphorylation in tumor at 5 to 20 mg/kg,ip once daily for 14 days by Western blot analysis; type: functional, organism-based; details: dose 5-20 mg/kg, time 14.0 day
HCC827 [27] = assay: Antitumor activity against human HCC827 cells xenografted in BALB/c mouse assessed as increase in EGFR degradation in tumor at 1.25 to 5 mg/kg,ip once daily for 28 days by Western blot analysis; type: functional, organism-based; details: dose 1.25-5 mg/kg, time 28.0 day
NCI-H1975 [28] = assay: Antitumor activity against human NCI-H1975 cells xenografted in BALB/c mouse assessed as tumor growth inhibition at 10 mg/kg,ip once daily for 22 days relative to control; type: functional; details: NCI-H1975, 528 h, time 22 day, read-out: TGI
HCC827 [29] = assay: Antitumor activity against human HCC827 cells xenografted in BALB/c mouse assessed as tumor growth inhibition at 5 mg/kg,ip once daily for 28 days relative to control; type: functional; details: HCC827, 672 h, time 28 day, read-out: TGI

**Q.** With `CCN(CC)C/C=C/C(=O)Nc1cc2c(Nc3ccc(F)c(Cl)c3)ncnc2cc1OCc1cn(CCCCCCCC(=O)N[C@H](C(=O)N2C[C@H](O)C[C@H]2C(=O)N[C@H](C)c2ccc(-c3scnc3C)cc2)C(C)(C)C)nn1` as the molecule, how does the Activity [1] read?
**A.** Its Activity is “inactive”.

**Q.** What about the Activity [2] of the same molecule?
**A.** The Activity was “inactive”.

**Q.** What about the half-life at 1 µM [3] of the same molecule?
**A.** Its half-life at 1 µM is 77.9 min.

**Q.** What about the AUC(0-t) at 24 h [4] of the same molecule?
**A.** Its AUC(0-t) at 24 h is 2820 ng·h/mL.

**Q.** And the Activity [5]?
**A.** The Activity was “Dose-Dependent Effect”.

**Q.** What about the inhibition in vivo at 5 mg/kg (NCI-H1975 [6]) of the same molecule?
**A.** The inhibition in vivo at 5 mg/kg was 56%.

**Q.** And the Cmax [7]?
**A.** The Cmax was 656 ng/mL.

**Q.** What about the Activity (H1975-TM [8]) of the same molecule?
**A.** The Activity was “Active”.

**Q.** What about the k el at 1 h, 1 µM [9] of the same molecule?
**A.** Its k el at 1 h, 1 µM is 0.00015 s⁻¹.

**Q.** What about the Emax [10] of the same molecule?
**A.** The Emax was 94%.

**Q.** What about the Activity [11] of the same molecule?
**A.** The Activity was 83%.

**Q.** And the Activity [12]?
**A.** The Activity was “Dose-Dependent Effect”.

**Q.** What about the AUC(0-inf) [13] of the same molecule?
**A.** Its AUC(0-inf) is 2830 ng·h/mL.

**Q.** And the Activity [14]?
**A.** The Activity was “Dose-Dependent Effect”.

**Q.** And the IC50 (A549)?
**A.** The IC50 was greater than 20 µM.

**Q.** What about the “inhibition (INH)” value [15] of the same molecule?
**A.** Its value is “Not Active”.

**Q.** And the inhibition in vivo at 1.25 mg/kg (HCC827 [16])?
**A.** Its inhibition in vivo at 1.25 mg/kg is 41%.

**Q.** What about the half-life at 1 µM [17] of the same molecule?
**A.** The half-life at 1 µM was 187 min.

**Q.** And the AUC(0-t) at 24 h [18]?
**A.** The AUC(0-t) at 24 h was 2350 ng·h/mL.

**Q.** What about the Emax [19] of the same molecule?
**A.** Its Emax is 100%.

**Q.** What about the IC50 (HCC827 [20]) of the same molecule?
**A.** Its IC50 is 9 nM.

**Q.** And the k el at 1 h, 1 µM [21]?
**A.** The k el at 1 h, 1 µM was 0.0001 s⁻¹.

**Q.** And the Activity [22]?
**A.** The Activity was “Dose-Dependent Effect”.

**Q.** What about the Activity [23] of the same molecule?
**A.** The Activity was “inactive”.

**Q.** And the Activity [24]?
**A.** The Activity was “Non-Toxic”.

**Q.** What about the half-life [25] of the same molecule?
**A.** The half-life was 57.6 min.

**Q.** What about the Activity (H1975-TM [26]) of the same molecule?
**A.** The Activity was “Active”.

**Q.** And the Activity (HCC827 [27])?
**A.** The Activity was “Active”.

**Q.** What about the inhibition in vivo at 10 mg/kg (NCI-H1975 [28]) of the same molecule?
**A.** The inhibition in vivo at 10 mg/kg was 79%.

**Q.** And the inhibition in vivo at 5 mg/kg (HCC827 [29])?
**A.** The inhibition in vivo at 5 mg/kg was 88%.
